Numbered stars: 1 amine (or outer) side, 2 acyl side, 3 side chain; on linkers, the order of the positions; unused ones are H or OH. Bridge positions count the residues as written; N and C are the ends. Square brackets hold non-standard residues; d marks the D form. Peptide text beside a SMILES is read from it. * marks the point of attachment. Phe(3-CH2NH2) = O=C([C@H](Cc1cccc(CN[*:3])c1)N[*:1])[*:2]; Phe(2-CONH2) = NC(=O)c1ccccc1C[C@H](N)C(=O)O; Imidazole4carbonyl = O=C(c1cnc[nH]1)*; Picolinoyl(5-F) = O=C(c1ccc(F)cn1)*; Lys(Me2) = CN(C)CCCC[C@H](N)C(=O)O; Orn(iPr) = CC(C)NCCC[C@H](N)C(=O)O; Benzoyl(4-F) = O=C(c1ccc(F)cc1)*; Oxazole2carbonyl = O=C(c1ncco1)*; 3Pal = N[C@@H](Cc1cccnc1)C(=O)O; Pyrrole2CO = O=C(c1ccc[nH]1)*; ΔPro = O=C(O)[C@@H]1C=CCN1; Orn = NCCC[C@H](N)C(=O)O; X2 = Cc1n[nH]c(C(=O)*)n1
What was measured:
[1] = molecular target: T1, hCGRP receptor (CALCRL:RAMP1) (Homo sapiens, UniProt O60894+Q16602); assay: CGRP receptor antagonist activity measured by cAMP assay (HTRF); format: cell-based; settings: agonist human α-CGRP; for Emax: % MPE: percent of the maximal possible effect, read-out: hCGRP-R Efficacy Antag (%) Ave; for IC50: GeneBLAzer CALCRL:RAMP1-CRE-bla Freestyle 293F cells, 30 minutes, read-out: hCGRP-R IC50 Ave
T1 construct: host or cells: GeneBLAzer CALCRL:RAMP1-CRE-bla Freestyle 293F
T1 sequence (Q16602 23-461): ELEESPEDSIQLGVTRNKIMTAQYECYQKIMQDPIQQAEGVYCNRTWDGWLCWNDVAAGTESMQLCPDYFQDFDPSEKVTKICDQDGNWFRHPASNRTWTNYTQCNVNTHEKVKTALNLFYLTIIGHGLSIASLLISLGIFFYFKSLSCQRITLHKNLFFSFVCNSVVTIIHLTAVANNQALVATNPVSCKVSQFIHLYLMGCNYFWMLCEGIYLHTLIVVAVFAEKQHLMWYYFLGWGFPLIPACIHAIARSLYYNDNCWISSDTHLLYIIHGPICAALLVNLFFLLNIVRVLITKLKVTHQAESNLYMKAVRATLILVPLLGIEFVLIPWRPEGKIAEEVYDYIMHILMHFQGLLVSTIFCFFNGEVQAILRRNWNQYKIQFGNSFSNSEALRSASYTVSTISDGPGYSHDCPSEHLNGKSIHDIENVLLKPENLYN
T1 sequence (O60894 27-148): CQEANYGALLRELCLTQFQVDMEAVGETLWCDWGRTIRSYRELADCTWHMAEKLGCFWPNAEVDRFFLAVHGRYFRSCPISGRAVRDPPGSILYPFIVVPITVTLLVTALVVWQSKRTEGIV

[2] = molecular target: T2, hAM2 receptor (CALCRL:RAMP3) (Homo sapiens, UniProt O60896+Q16602); assay: AM2 receptor antagonist activity measured by cAMP assay (HTRF); format: cell-based; settings: for Emax: % MPE: percent of the maximal possible effect, read-out: hAM2-R Efficacy Antag (%) Ave; for Emax / IC50: agonist human adrenomedullin; for IC50: GeneBLAzer CALCRL:RAMP3-CRE-bla Freestyle 293F cells, read-out: hAM2-R IC50 Ave; for selectivity ratio CGRP/AM2: selectivity ratio for hCGRP over hAM2, calculated from the IC50 values
T2 construct: expressed in transfected cells; host or cells: GeneBLAzer CALCRL:RAMP3-CRE-bla Freestyle 293F
T2 sequence (Q16602 23-461): as the sequence (Q16602 23-461) above
T2 sequence (O60896 24-148): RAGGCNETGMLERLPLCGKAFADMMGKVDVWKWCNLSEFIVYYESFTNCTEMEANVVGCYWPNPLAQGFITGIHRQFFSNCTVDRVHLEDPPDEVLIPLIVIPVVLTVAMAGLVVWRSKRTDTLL

| Compound | Emax [1] | IC50 [1] | Emax [2] | IC50 [2] | selectivity ratio CGRP/AM2 [2] |
| --- | --- | --- | --- | --- | --- |
| CC(C)[C@@H]1NC(=O)[C@H](CC(=O)O)NC(=O)[C@H](CCCNC(=N)N)NC(=O)[C@@H](NC(=O)[C@H](Cc2ccc(O)cc2)NC(=O)[C@H](NC(=O)c2ccc[nH]2)C(C)C)CSSC[C@@H](C(=O)N[C@@H](Cc2cccnc2)C(N)=O)NC(=O)[C@H](Cc2ccccc2)NC(=O)[C@@H]2CCCN2C(=O)CNC1=O [Compound 49] (Pyrrole2CO-[dV]YCRDVGPFC[3Pal]-NH2; disulfide 3-10) | 100% | 0.19 nM | 99% | 89 nM | 461 |
| CC(C)[C@@H]1NC(=O)[C@H](CC(=O)O)NC(=O)[C@H](CCCNC(=O)[C@@H](N)CCCCN(C)C)NC(=O)[C@@H](NC(=O)[C@H](Cc2ccc(O)cc2)NC(=O)[C@H](NC(=O)c2ncco2)C(C)C)CSSC[C@@H](C(=O)N[C@@H](Cc2cccnc2)C(N)=O)NC(=O)[C@H](Cc2ccccc2)NC(=O)[C@@H]2CCCN2C(=O)CNC1=O [Compound 44, Oxazole-2-carbonyl-D-Val-Tyr-c(Cys-Orn(Lys(Me2))-Asp-Val-Gly-Pro-Phe-Cys)-3Pal-NH2] (Oxazole2carbonyl-[dV]YC[Orn](Lys(Me2))DVGPFC[3Pal]-NH2; disulfide 3-10) | 100% | 0.17 nM | 100% | 114 nM | 668 |
| CC(C)[C@@H]1NC(=O)[C@H](CC(=O)O)NC(=O)[C@H](CCCNC(=N)N)NC(=O)[C@@H](NC(=O)[C@H](Cc2cccc(CN)c2)NC(=O)[C@H](NC(=O)c2ccc(F)cc2)C(C)C)CSSC[C@@H](C(=O)N[C@@H](Cc2cccnc2)C(N)=O)NC(=O)[C@H](Cc2ccc(O)cc2)NC(=O)[C@@H]2C=CCN2C(=O)CNC1=O [Compound 22, Bz(4-F)-D-Val-Phe(3-CH2NH2)-c(Cys-Arg-Asp-Val-Gly-Dhp-Tyr-Cys)-3Pal-NH2] ({Benzoyl(4-F)}-[dV][Phe(3-CH2NH2)]CRDVG[ΔPro]YC[3Pal]-NH2; disulfide 3-10) | 100% | 0.19 nM | 101% | 33 nM | 175 |

More lines, in order of falling IC50 [1], values ahead:

| Emax [1] | IC50 [1] | Emax [2] | IC50 [2] | selectivity ratio CGRP/AM2 [2] | Compound |
| --- | --- | --- | --- | --- | --- |
| 100% | 0.17 nM | 100% | 379 nM | 2295 | CC(C)[C@@H]1NC(=O)[C@H](CC(=O)O)NC(=O)[C@H](CCCNC(=N)N)NC(=O)[C@@H](NC(=O)[C@H](Cc2ccc(O)cc2)NC(=O)[C@H](NC(=O)c2cnc[nH]2)C(C)C)CSSC[C@@H](C(=O)N[C@@H](Cc2cccnc2)C(N)=O)NC(=O)[C@H](Cc2ccccc2)NC(=O)[C@@H]2CCCN2C(=O)CNC1=O [Compound 37] (Imidazole4carbonyl-[dV]YCRDVGPFC[3Pal]-NH2; disulfide 3-10) |
| 100% | 0.13 nM | 101% | 275 nM | 2125 | CC(C)NCCC[C@@H]1NC(=O)[C@@H](NC(=O)[C@H](Cc2ccccc2C(N)=O)NC(=O)[C@H](NC(=O)c2ccc(F)cn2)C(C)C)CSSC[C@@H](C(=O)N[C@@H](Cc2cccnc2)C(N)=O)NC(=O)[C@H](Cc2cccnc2)NC(=O)[C@@H]2CCCN2C(=O)CNC(=O)[C@H](C(C)C)NC(=O)[C@H](CC(=O)O)NC1=O [Compound 39, Picolinoyl(5-F)-D-Val-Phe(2-Cbm)-c(Cys-Orn(iPr)-Asp-Val-Gly-Pro-3Pal-Cys)-3Pal-NH2] ({Picolinoyl(5-F)}-[dV][Phe(2-CONH2)]C[Orn(iPr)]DVGP[3Pal]C[3Pal]-NH2; disulfide 3-10) |
| 100% | 0.07 nM | 96% | 402 nM | 5610 | Cc1n[nH]c(C(=O)N[C@@H](C(=O)N[C@@H](Cc2ccc(O)cc2)C(=O)N[C@H]2CSSC[C@@H](C(=O)N[C@@H](Cc3cccnc3)C(N)=O)NC(=O)[C@H](Cc3ccccc3)NC(=O)[C@@H]3CCCN3C(=O)CNC(=O)[C@H](C(C)C)NC(=O)[C@H](CC(=O)O)NC(=O)[C@H](CCCNC(=N)N)NC2=O)C(C)C)n1 [Compound 48] (X2-[dV]YCRDVGPFC[3Pal]-NH2; disulfide 3-10) |

From patent US9969775B2, “CGRP antagonist peptides” (Ferring B.V., priority 2015, dated 2018)
